Measured values published in PMC10781691, “Vertical pathway inhibition of receptor tyrosine kinases and BAD with synergistic efficacy in triple negative breast cancer” (NPJ Precision Oncology, 2024).
pIC50: −log10 of the molar value. Like-named read-outs stand apart in the source and are kept apart here.

Tests used:
[1] = tested on: BT549 cells; assay: Annexin V-PI apoptosis flow cytometry; conditions: BT549, 5 μM
From the text: Representative flow cytometry plots of Annexin-V and propidium iodide (PI) stained apoptotic
or NPB using flow cytometry analysis. Annexin V-FITC staining is indicated on the x axis, and PI staining is indicated on the y axis. The lower left quadrants represent live cells, the lower right quadrants represent early apoptotic cells, the upper left quadrants represent necrotic cells, and the upper right quadrants display late apoptotic cells. Acquisition of Annexin V and PI data are presented as a percentage (%) in each quadrant. Early apoptotic cells are referred to as Annexin- V positive and late apoptotic cells are referred to as Annexin-V and PI double positive.

[2] = tested on: BAD phosphorylation at Ser75 and Ser118; assay: Western blot of BAD phosphorylation at Ser75 and Ser118 in TNBC cells; assay type: cell-based, human; conditions: MDA-MB-231 and BT549 cells
Experimental: To compare the binding affinity of NCK and NPB towards BAD, we performed surface plasmon resonance (SPR) measurement by immobilizing BAD protein on a sensor chip with NCK or NPB as analyte. Representative reference-subtracted overlaid sensorgrams and the kinetic parameters are specified in Fig. 2d and Supplementary Fig. 6A. […] Additionally, the pharmacological inhibition of BAD phosphorylation by NCK or NPB in TNBC cells was evaluated. […] Furthermore, the comparative potencies of NPB and NCK were evaluated in eight TNBC cell lines using total cell number assay in 2D culture and cell viability in 3D culture (Supplementary Fig. 6C, D).

[3] = tested on: BT549 cells; assay: Cell cycle analysis by PI flow cytometry; assay type: cell-based, human; conditions: BT549, 5 μM
[4] = tested on: 4T1-luciferase cells
Experimental: Since metastasis is the primary contributor to mortality and poor prognosis for TNBC patients, the therapeutic potential of NCK, TKIs or combined NCK-TKI treatment on TNBC metastasis was further evaluated with an experimental lung metastasis model.
In vivo bioluminescent imaging was performed to determine the incidence and metastatic burden of luciferase-labeled 4T1 cells. Mice were injected i.p. with 10 mg/ml of D-luciferin (Gold Biotechnology, MO, USA) and imaged using a PerkinElmer IVIS Spectrum system. PDX were generated as previously described by transplanting fresh fragments orthotopically into 8-week-old female nonobese diabetic (NOD)/severe combined immunodeficient (SCID) mice (Beijing Vital River Laboratory Animal Technology Co., Beijing, China) (P1, passage 1)[40]. The P1 xenografts were then fragmented, digested into single-cell suspension and implanted into mammary fat pad (100 μL PBS containing growth factor reduced 50% Matrigel) of NOD/SCID mice. Once orthotopic xenografts reached an approximate size of 100 mm^3, the mice were randomly divided into three groups (n = 8) for single drug studies and six groups (n = 6) for combination studies and Kaplan-Meier (KM) analyses. […] Animal body weight and xenograft size were measured daily using an electronic balance and a digital caliper, respectively. Xenograft volume (mm^3) was calculated by using the formula: 0.52 × length × [width]^2. Complete response (CR) was achieved if the average xenograft volume for the treatment group was unable to be determined for two or more consecutive measurements. Partial response (PR) was achieved if the average xenograft volume reduced to <50 mm^3 for two or more consecutive measurements. After 3-week drug treatment, all mice were sacrificed by CO2 inhalation. Tumor and vital organs were weighed and isolated for further analysis. IHC analysis of xenograft histology sections and quantitative polymerase chain reaction (qPCR) were performed as previously described. […] For PDX, xenograft growth was monitored daily by measurement of the xenograft volume until mice humane endpoint ( ~ 1000 mm^3).
luciferase cell generated metastasis model. Scale bar, 20 µm. (C) Animal weight of each
treatment group was indicated. (D) Changes in relative lung, liver, spleen, heart and kidney
(CRI) or combinations during the study at day 9.

[5] = tested on: TNBC cell lines; assay: 2D total cell number and 3D viability in eight TNBC cell lines; assay type: cell-based, human
[6] = tested on: MDA-MB-231 cells; assay: Cell survival after siRNA-BAD or scrambled control and NCK; assay type: cell-based, human
From the text: To confirm the functional specificity of NCK to BAD, the effect of NCK treatment after siRNA-mediated depletion of BAD expression was examined in MDA-MB-231 cells. […] Consistent with previous findings[32]–[34], no significant changes in cell viability nor CASPASE 3/7 activity were observed upon transfection of siRNA directed to the BAD transcript (Fig. 2g–i).

[7] = Pharmacokinetics after IV and oral administration; assay type: in vivo, Sprague-Dawley (SD) rats; design: AUClast/D: unit not given here; conditions: SD rats; for MRT inf: read-out: MRTInf_obs
Experimental: The pharmacokinetics of NCK were determined via intravenous (IV) and oral administration in Sprague-Dawley (SD) rats (Supplementary Fig. 7).
Supplementary Figure 7: (A) Plasma concentration of NCK after intravenous (IV, 1 mg/kg) (red) or oral (PO, 10 mg/kg) (blue) administration in SD rats. Results represent the mean ± SD of three animals. (B) Pharmacokinetic parameters of NCK in plasma after IV injection (1 mg/kg) or oral administration (10 mg/kg). AUCinf: Area Under the Plasma Concentration-Time Curve from t=0 to infinity; AUClast: Area Under the Plasma Concentration-Time Curve from t=0 to last measurable positive concentration; AUC_%Extrap_obs: Percent Extrapolated AUC from tlast to infinity; C0: Initial concentration in plasma; Cmax: Peak concentration in plasma; Cl_obs:
Plasma systemic clearance; F: Absolute oral bioavailability; MRTInf_obs: Mean residence time from t=0 to infinity ;T1/2: Elimination half- life; Tmax: Time of peak concentration in plasma; Vss_obs: Volume of Distribution at Steady- state

[8] = tested on: MDA-MB-231 cells; assay: AlamarBlue cell viability, 3D Matrigel culture; assay type: cell-based, human
[9] = tested on: c-Raf; design: method as in SelleckChem; conditions: ref SelleckChem; cited from earlier work
[10] = tested on: MDA-MB-231 cells; assay: Cambridge cancer compound library screen in combination with NCK; assay type: cell-based, human; conditions: compound at IC25 with NCK 0.1, 1, 10 μM, 72 h, AlamarBlue
Experimental: Cancer compound library screening was performed using IC25 values of anti-cancer compounds (predicted with Genomics of Drug Sensitivity in Cancer (https://www.cancerrxgene.org/) and NCK at 3-point dilutions (0.1, 1, 10 μM) in medium containing 2% FBS to identify potential synergistic combinations. In detail, MDA-MB-231 cells (5 ×10^3) were seeded in 96-well plates in 80 μl of culture medium (2% FBS) and allowed to settle overnight. 24-hour post-seeding, 10 μl of compounds dissolved in culture medium were prepared and added to the plates to reach a final concentration of IC25 of the respective compound. 10 μl of NCK was also added into cell plates to yield a final concentration of 0.1, 1 or 10 μM. After 72-hours of treatment, cell viability was determined with AlamarBlue reagent and fluorescence was measured using a Tecan microplate reader, as previously described[29].

[11] = tested on: c-Kit; conditions: read-out: potency on Kit; cited from earlier work
[12] = Phase I, cited from earlier work
[13] = BALB/c mice, day 9, NCK 20 mg/kg, OSI 50 mg/kg, CRI 50 mg/kg
[14] = Sprague-Dawley, rat, plasma, IV 1 mg/kg
[15] = Sprague-Dawley, rat, plasma, PO 10 mg/kg

With `Oc1ccccc1C(c1cccnc1)N1CCN(c2cccc(Cl)c2Cl)CC1` (stereo not shown) [NCK, 2-((4-(2,3-dichlorophenyl)piperazin-1-yl)(pyridin-3-yl)methyl) phenol] the “induction of apoptosis (early and late)” value [1] was “more potent effect than NPB in inducing apoptosis”, the “levels of pBADSer75/BAD and pBADSer118/BAD” value [2] was “did not alter” and the “decrease in S-phase” value [3] was 27.12%. For the same compound, the “increase in G1-phase” value [3] was 30.43%, the “lung metastases (bioluminescent signals) vs control” value ([4]; 4T1-luciferase metastasis model) was “significantly abrogated lung metastases” and the “Relative Heart Weight” value [4, 13] was 0.51±0.07%. The “Relative Kidney Weight” value [4, 13] was 1.40±0.07%, the “Relative Liver Weight” value [4, 13] was 4.55±0.21% and the “Relative Lung Weight” value [4, 13] was 1.70±0.49%. The “Relative Spleen Weight” value [4, 13] was 1.54±0.54%, the “potency vs NPB in reducing 2D and 3D cell viability” value [5] was “more potent than NPB” and the “cell viability vs vehicle” value ([6]; MDA-MB-231, 5 μM NCK) was “decreased cell viability”. The “effect on cell viability and CASPASE 3/7 activity after siRNA-mediated depletion of BAD” value ([6]; MDA-MB-231, siRNA-BAD, 5 μM NCK) was “abolished the effect of NCK”, the AUC_%Extrap_obs ([7]; IV 1 mg/kg) was 2.51% and the AUClast/D ([7]; IV 1 mg/kg) was 280. The Vss_obs ([7]; IV 1 mg/kg) was 5.93 L/kg, the AUC_%Extrap_obs ([7]; PO 10 mg/kg) was 2.14% and the AUClast/D ([7]; PO 10 mg/kg) was 105. For the same compound, the AUC(0-inf) [7, 14] was 288 ng·h/mL, the AUC(0-t) [7, 14] was 280 ng·h/mL and the C0 [7, 14] was 554 ng/mL. For the same compound, the half-life [7, 14] was 3.35 h, the MRT inf [7, 14] was 1.72 h and the bioavailability ([7]; Sprague-Dawley, rat, plasma, PO 10 mg/kg vs IV 1 mg/kg, read-out: F (absolute oral bioavailability)) was 37.2%. The AUC(0-inf) [7, 15] was 1070 ng·h/mL, the AUC(0-t) [7, 15] was 1050 ng·h/mL and the Cmax [7, 15] was 346 ng/mL. The Tmax [7, 15] was 0.33 h, the half-life [7, 15] was 2.68 h and the MRT inf [7, 15] was 4 h. The clearance ([7]; Sprague-Dawley, rat, IV 1 mg/kg, plasma, read-out: Cl_obs (clearance)) was 58.3 mL/min/kg, the pIC50 ([8]; Homo sapiens, MDA-MB-231, 3D Matrigel, AlamarBlue) was 6.62 and the “growth in 3D Matrigel” value ([8]; MDA-MB-231, 5 μM each) was “reduced cell growth in 3D Matrigel”. For the same compound, the “fold IC50 difference NCK vs NPB” value ([8]; MDA-MB-231, 3D Matrigel) was ~ 6 fold.
In the case of `O=C(Nc1ccc(OC(F)(F)F)cc1)c1sccc1NCc1ccnc2ccccc12` [OSI-930], the pIC50 [9] is listed as 7.39, the “synergy with NCK in compound library screen (CI, Bliss independence)” value [10] is listed as “low CI (high synergy)” and the pIC50 [11] is listed as 7.10. For the same compound, the “MTD, BID” value ([12]; ref NCT00513851) was 500 mg, the “MTD, QD” value ([12]; ref NCT00513851) was 1600 mg and the “MTD of OSI-930 BID with 150 mg erlotinib QD” value ([12]; ref NCT00603356) was 200 mg.
